From paper PMC8881063 (Journal of Enzyme Inhibition and Medicinal Chemistry, 2022)
Entries after “also recorded” stand apart in the source; their conditions may differ.

Legend:
recombinant human MAO-A = target: T1, recombinant human MAO-A (Homo sapiens, UniProt P21397); assay: hMAO-A inhibition, spectrophotometric assay; format: biochemical
T1 sequence (P21397 1-527): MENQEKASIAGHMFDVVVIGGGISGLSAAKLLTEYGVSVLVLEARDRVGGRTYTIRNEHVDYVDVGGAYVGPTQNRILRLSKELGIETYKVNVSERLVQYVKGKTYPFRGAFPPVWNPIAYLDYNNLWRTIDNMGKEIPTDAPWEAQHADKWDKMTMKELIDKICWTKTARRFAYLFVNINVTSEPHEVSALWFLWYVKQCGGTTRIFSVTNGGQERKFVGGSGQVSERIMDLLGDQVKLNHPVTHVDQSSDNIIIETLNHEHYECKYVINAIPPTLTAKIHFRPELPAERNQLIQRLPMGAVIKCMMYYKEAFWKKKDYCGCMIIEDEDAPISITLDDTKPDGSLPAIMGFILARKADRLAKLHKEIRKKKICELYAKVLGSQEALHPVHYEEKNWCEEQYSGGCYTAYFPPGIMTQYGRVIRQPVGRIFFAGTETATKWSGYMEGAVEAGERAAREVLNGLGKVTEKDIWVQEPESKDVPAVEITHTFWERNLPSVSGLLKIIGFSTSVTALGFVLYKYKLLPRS
Description: Two different MAO isoforms are known.

BV2 cells = assay: BV2 cell viability, WST-1 assay; format: cell-based; details: doses of 1, 10, 30 and 50 µM
Description: Promising antineurodegenrative candidate molecules should not impair viability of CNS cells. Microglia are critical cells within CNS involved in microglia–neuron communications and are responsible for maintenance of brain integrity and health[61]^,[62]. However, under neuroinflammatory conditions, aberrant activation of microglia contributes to neurodegeneration and disease progression. In this regard, suppression of the abnormal activation while maintenance of viability of microglia is important considerations. […] The viability assay was carried out using the water-soluble tetrazolium reagent WST-1 which eliminates the formazan dissolution step requested in case of MTT[65] employing multiple doses of 1, 10, 30, and 50 µM. […] In lieu of this, it might be inferred that these compounds showing effective inhibition of MAO-B activity and triggering no impairment of microglia viability are good candidates might be advanced for further evaluation towards the development of multifunctional molecules for neurodegenerative diseases such as PD.
The impact of the compounds on the viability of cells was performed by the well-known WST-1 assay method as described in the Supporting information.

[1] = tested on: LPS-treated BV2 cells (NO production); assay: LPS-induced production of nitric oxide in BV2 cells; format: cell-based; details: different concentrations, Figure 3(A)
Protocol: (§1) Neuroinflammation is a crucial component in neurodegenerative diseases. Chronic activation of microglia, which are the brain-resident form of macrophages, results in sustained production of several proinflammatory mediators including glial NO, PGE2, and others molecules that are implicated in multiple neurodegenerative diseases. […] In this regard, LPS-treated BV2 cells were incubated with or without different concentrations of each compound. […] Based on collective results of antineuroinflammatory activity evaluation, in conjugation with above-conducted MAO inhibitions’ assays, compound 1p might be claimed as a promising lead compound eliciting polypharmacological effects combining inhibition of neuroinflammation and MAO-B activity; both processes are crucial components of neurodegenerative diseases such as PD.
(§2) The abilities of compounds to inhibit the induced production of NO and PGE2 were assessed by well-known protocol as indicated in the Supporting information.

[2] = tested on: LPS-treated BV2 cells (PGE2 production); assay: LPS-induced production of PGE2 in BV2 cells; format: cell-based; details: different concentrations, Figure 3(B)
Protocol: as §1, §2

MAO-B [3] = target: T2, MAO-B (Homo sapiens, UniProt P27338); assay: MAO-B inhibition kinetic study (Michaelis–Menten, Lineweaver–Burk); format: biochemical
T2 sequence (P27338 1-520): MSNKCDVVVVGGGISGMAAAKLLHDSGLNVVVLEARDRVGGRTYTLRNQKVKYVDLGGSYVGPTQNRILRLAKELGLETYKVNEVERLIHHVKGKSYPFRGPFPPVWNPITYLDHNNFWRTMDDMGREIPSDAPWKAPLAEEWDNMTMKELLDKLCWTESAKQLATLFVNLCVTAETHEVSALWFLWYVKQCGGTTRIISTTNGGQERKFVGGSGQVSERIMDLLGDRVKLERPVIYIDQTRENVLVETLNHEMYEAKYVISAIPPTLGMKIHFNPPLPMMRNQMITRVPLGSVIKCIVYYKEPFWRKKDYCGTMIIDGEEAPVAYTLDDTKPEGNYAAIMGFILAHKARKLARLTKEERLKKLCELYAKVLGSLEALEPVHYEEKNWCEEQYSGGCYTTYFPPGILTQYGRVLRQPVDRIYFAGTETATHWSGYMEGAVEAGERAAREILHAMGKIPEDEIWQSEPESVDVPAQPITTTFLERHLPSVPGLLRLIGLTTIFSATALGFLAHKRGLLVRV
Protocol: (§3) To get insights into MAO-B inhibition reaction by compounds 1p and 1y, a kinetic study and reversibility testing were conducted. As illustrated in Figure 4(A,B), Michaelis–Menten graphs were constructed using different concentrations of compounds 1p and 1y employing different concentrations benzylamine as a substrate.
(§4) Kinetics of the inhibition of MAO-B and testing of reversibility were conducted according to literature-reported protocols[59] as indicated in the Supporting information.

MAO-B [4] = target: T2, MAO-B; assay: MAO-B inhibition reversibility testing (washing); format: biochemical; details: enzymatic activity after washing
Protocol: as §3, §4

MAO-B [5] = target: T2, MAO-B; assay: hMAO-B inhibition, spectrophotometric assay
Protocol: The inhibitory activities of the compounds against hMAO-A and hMAO-B enzymes were evaluated referring to a previously described method (Supporting information)[49].

IC50 (recombinant human MAO-A): > 100 µM
inhibition at 10 µM (recombinant human MAO-A; single dose concentration of 10 µM): -1.53%
Ki (MAO-B [3]; benzylamine as substrate): 0.0365 µM
Reversibility of MAO-B inhibition (MAO-B [4]): washing restored the enzymatic activity
IC50 (MAO-B [5]): 0.171 µM
Selectivity index for inhibition of MAO-B (MAO-B [5]; IC50 MAO-A divided by IC50 MAO-B): >583
inhibition at 10 µM (MAO-B [5]; read-out: MAO-B % Inhibition, single dose concentration of 10 µM): 96.7%
Compound: COc1ccc(/C=C2\Oc3cc(O)ccc3C2=O)c(OC)c1OC [Compound 1p]
Impact on viability of BV2 cells (BV2 cells): none of the tested concentrations
Effect on LPS-induced NO production by BV2 cells [1]: significant inhibition of NO production
Effect on LPS-induced PGE2 production by BV2 cells [2]: effectively suppressed the induced-PGE2 production
Type of MAO-B inhibition (MAO-B [3]; Lineweaver–Burk plots): competitive inhibitors; also recorded: Competitive inhibition
